These results are taken from patent US5585374A, “Amide derivatives” (John Wyeth Brother, Limited, priority 1992, dated 1996).

For one assay, the system named is α1 sites. The assay can be described thus: affinity for α1 sites (procedure of Marrow et al.). The class given is binding.
The target in assay [1] is T1, 5-HT1A receptor (Cavia porcellus, UniProt A0A286Y074).
T1 construct: in the guinea-pig ileum in vitro; from tissue; host or cells: guinea-pig ileum
T1 sequence (A0A286Y074 1-421): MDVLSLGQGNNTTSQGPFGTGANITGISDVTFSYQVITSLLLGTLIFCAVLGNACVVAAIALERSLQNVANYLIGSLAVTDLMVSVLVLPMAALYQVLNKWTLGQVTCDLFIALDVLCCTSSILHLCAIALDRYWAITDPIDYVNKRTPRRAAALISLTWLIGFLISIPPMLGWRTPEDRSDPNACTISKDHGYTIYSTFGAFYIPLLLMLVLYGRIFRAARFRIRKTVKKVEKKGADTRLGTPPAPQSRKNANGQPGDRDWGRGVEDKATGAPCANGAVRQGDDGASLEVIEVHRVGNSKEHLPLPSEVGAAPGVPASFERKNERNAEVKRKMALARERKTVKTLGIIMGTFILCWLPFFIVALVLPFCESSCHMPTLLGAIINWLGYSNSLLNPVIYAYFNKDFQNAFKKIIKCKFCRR
The assay can be described thus: 5-HT1A receptor antagonism: antagonism of 5-carboxamidotryptamine in guinea-pig ileum in vitro. The note with it: read-out: pA2 (converted). Here is the method:
The compounds are tested for 5-HT1A receptor antagonism activity in a test involving the antagonism of 5-carboxamidotryptamine in the guinea-pig ileum in vitro (based upon the procedure of Fozard et al, Br J Pharmac, 1985, 86, 601 P).

The target of assay [2] is T2, 5-HT1A receptor (Rattus norvegicus, UniProt P19327).
T2 construct: rat hippocampal membrane homogenate; from tissue; host or cells: rat hippocampus (membrane homogenate)
T2 sequence (P19327 1-422): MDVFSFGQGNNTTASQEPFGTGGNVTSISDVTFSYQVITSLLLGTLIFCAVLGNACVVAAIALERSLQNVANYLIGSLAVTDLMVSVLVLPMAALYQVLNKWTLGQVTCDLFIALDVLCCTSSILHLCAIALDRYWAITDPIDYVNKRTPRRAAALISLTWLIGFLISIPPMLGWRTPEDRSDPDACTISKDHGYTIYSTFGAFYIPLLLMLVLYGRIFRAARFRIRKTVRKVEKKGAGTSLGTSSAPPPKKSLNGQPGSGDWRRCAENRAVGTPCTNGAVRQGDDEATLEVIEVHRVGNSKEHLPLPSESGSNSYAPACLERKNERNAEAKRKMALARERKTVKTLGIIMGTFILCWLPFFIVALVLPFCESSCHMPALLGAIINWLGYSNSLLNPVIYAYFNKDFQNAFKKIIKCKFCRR
In words: 5-HT1A receptor binding activity in rat hippocampal membrane homogenate. Here is the method:
The compounds of the invention are tested for 5-HT1A receptor binding activity in rat hippocampal membrane homogenate by the method of B S Alexander and M D Wood, J Pharm Pharmacol, 1988, 40, 888-891.

Usually IC50 stands for the concentration that gives 50% inhibition. Turning to `COc1ccccc1C1CCN(CCC(C(=O)N2CCCCCC2)c2ccccc2)CC1` (single isomer, unassigned; (+)) [(+)-enantiomer], the IC50 stood at 250 nM in the assay with α1 sites and 0.2 nM on 5-HT1A receptor [2]. Also, the Kb on 5-HT1A receptor [1] is 1 nM.

Consider `COc1ccccc1C1CCN(CCC(C(=O)N2CCCCCC2)c2ccccc2)CC1` (stereo not drawn) [2,3,4,5,6,7-hexahydro-1-(4-(1-(1,2,3,4,5,6-hexahydro-4-(2-methoxyphenyl)pyridyl))-2-phenylbutyryl)-1H-azepine], for which the IC50 in the assay with α1 sites turned out to be 1080 nM; on 5-HT1A receptor [2], 1.2 nM. Also, the Kb on 5-HT1A receptor [1] was 0.794 nM.
